Laboratory results reported in ChEMBL document CHEMBL1240392 (Antimicrob Agents Chemother, 2010).
Values after ≈ are worked out from the molar mass of the structure shown. Active and inactive are the calls of the source. The rule behind the calls is not given here.

Tests used:
[1] = system: Mus musculus; experiment: Cmax in C57BL/6 mouse pneumonia model at 20 mg/kg, im; format: ADME, organism-based; set-up: dose 20 mg/kg, route intramuscular; details: in vivo
[2] = system: Oryctolagus cuniculus; experiment: Cmax in New Zealand rabbit meningitis model at 12 mg/kg, im; format: ADME, organism-based; set-up: dose 12 mg/kg, route intramuscular; details: in vivo
[3] = system: Mus musculus; experiment: AUC in C57BL/6 mouse pneumonia model at 20 mg/kg, im; format: ADME, organism-based; set-up: dose 20 mg/kg, route intramuscular; details: in vivo
[4] = species on record: Homo sapiens; experiment: AUC in human; format: ADME, organism-based, Plasma; details: in vivo
[5] = system: Oryctolagus cuniculus; experiment: AUC in New Zealand rabbit meningitis model at 12 mg/kg, im; format: ADME, organism-based; set-up: dose 12 mg/kg, route intramuscular; details: in vivo
[6] = system: Mus musculus; experiment: Half life in C57BL/6 mouse pneumonia model at 20 mg/kg, im; format: ADME, organism-based; set-up: dose 20 mg/kg, route intramuscular; details: in vivo
[7] = system: Oryctolagus cuniculus; experiment: Half life in New Zealand rabbit meningitis model at 12 mg/kg, im; format: ADME, organism-based; set-up: dose 12 mg/kg, route intramuscular; details: in vivo
[8] = system: Acinetobacter baumannii; experiment: Antimicrobial activity against Acinetobacter baumannii 940; format: functional
[9] = system: Acinetobacter baumannii; experiment: Antibacterial activity against Acinetobacter baumannii 1327 infected in New Zealand rabbit meningitis model assessed as reduction in bacterial count in CSF at 25 mg/kg, im measured after 6 hrs of last dose (RVb = 5.5); format: functional, organism-based; set-up: dose 25 mg/kg
[10] = system: Acinetobacter baumannii; experiment: Antimicrobial activity against Acinetobacter baumannii 1417; format: functional
[11] = Ratio of AUC to MIC for Acinetobacter baumannii 1327 in pharmacokinetic-pharmacodynamic New Zealand rabbit meningitis model at 12 mg/kg, im; format: functional, organism-based; set-up: dose 12 mg/kg
[12] = system: Acinetobacter baumannii; experiment: Antimicrobial activity against Acinetobacter baumannii 940 after 24 hrs by time-kill assay; format: functional, organism-based
[13] = Ratio of Cmax to MIC for Acinetobacter baumannii 1327 in pharmacokinetic-pharmacodynamic New Zealand rabbit meningitis model at 12 mg/kg, im; format: functional, organism-based; set-up: dose 12 mg/kg
[14] = Ratio of AUC to MIC for Acinetobacter baumannii 1327 in pharmacokinetic-pharmacodynamic C57BL/6 mouse pneumonia model at 12 mg/kg, im; format: functional, organism-based; set-up: dose 12 mg/kg
[15] = system: Acinetobacter baumannii; experiment: Antimicrobial activity against Acinetobacter baumannii infected in C57BL/6 mouse model assessed as reduction in bacterial count in blood at total dose of 60 mg/kg/day, im administered as four divided doses after 72 hrs; format: functional, organism-based; set-up: scale not given: the % may be the effect or the level left
[16] = Ratio of Cmax to MIC for Acinetobacter baumannii 1327 in pharmacokinetic-pharmacodynamic C57BL/6 mouse pneumonia model at 20 mg/kg, im; format: functional, organism-based; set-up: dose 20 mg/kg
[17] = system: Acinetobacter baumannii; experiment: Antibacterial activity against Acinetobacter baumannii 1327 infected in New Zealand rabbit meningitis model assessed as reduction in bacterial count in CSF at 25 mg/kg, im measured after 4 hrs of last dose (RVb = 5.2); format: functional, organism-based; set-up: dose 25 mg/kg
[18] = system: Acinetobacter baumannii; experiment: Antimicrobial activity against Acinetobacter baumannii 506 after 24 hrs by time-kill assay; format: functional, organism-based
[19] = system: Acinetobacter baumannii; experiment: Antimicrobial activity against Acinetobacter baumannii 1417 after 24 hrs by time-kill assay; format: functional, organism-based
[20] = system: Acinetobacter baumannii; experiment: Antibacterial activity against Acinetobacter baumannii infected in C57BL/6 mouse model assessed as survival rate at total dose of 60 mg/kg/day, im administered as four divided doses measured after 72 hrs post last dose relative to control; format: functional, organism-based
[21] = system: Acinetobacter baumannii; experiment: Antimicrobial activity against Acinetobacter baumannii; format: functional, organism-based
[22] = system: Acinetobacter baumannii; experiment: Antimicrobial activity against Acinetobacter baumannii 1327; format: functional
[23] = system: Acinetobacter baumannii; experiment: Antimicrobial activity against Acinetobacter baumannii 1327 after 24 hrs by time-kill assay; format: functional, organism-based
[24] = system: Acinetobacter baumannii; experiment: Antimicrobial activity against Acinetobacter baumannii infected in C57BL/6 mouse model assessed as reduction in bacterial count per gram of lung at total dose of 60 mg/kg/day, im administered as four divided doses after 72 hrs (RVb = 10.6+/-0.27); format: functional, organism-based
[25] = system: Oryctolagus cuniculus; experiment: Antiinflammatory activity in Acinetobacter baumannii 1327-infected New Zealand rabbit meningitis model assessed as brain edema at 12 mg/kg, im; format: functional, organism-based; set-up: dose 12 mg/kg
[26] = system: Oryctolagus cuniculus; experiment: Antiinflammatory activity in Acinetobacter baumannii 1327-infected New Zealand rabbit meningitis model assessed as in WBC count at 12 mg/kg, im after 6 hrs (RVb = 1 cells/ul); format: functional, organism-based; set-up: dose 12 mg/kg
[27] = system: Acinetobacter baumannii; experiment: Antimicrobial activity against Acinetobacter baumannii 506; format: functional
[28] = T>MIC in Acinetobacter baumannii infected C57BL/6 mouse pneumonia model at 20 mg/kg, im; format: functional, organism-based; set-up: dose 20 mg/kg
[29] = T>MIC in Acinetobacter baumannii infected New Zealand rabbit meningitis model at 12 mg/kg, im; format: functional, organism-based; set-up: dose 12 mg/kg
[30] = system: Acinetobacter baumannii; experiment: Antibacterial activity against Acinetobacter baumannii 1327 infected in New Zealand rabbit meningitis model assessed as reduction in bacterial count in CSF at 25 mg/kg, im measured after 2 hrs of last dose (RVb = […]); format: functional, organism-based; set-up: dose 25 mg/kg
[31] = T>MIC in Acinetobacter baumannii infected New Zealand rabbit meningitis model at 30 mg/kg, im; format: functional; details: route intramuscular
[32] = system: Acinetobacter baumannii; experiment: Antibacterial activity against Acinetobacter baumannii infected in C57BL/6 mouse model assessed as survival rate at total dose of 240 mg/kg/day, im administered as four divided doses measured after 72 hrs post last dose relative to control; format: functional; details: route intramuscular
[33] = T>MIC in Acinetobacter baumannii infected C57BL/6 mouse pneumonia model at 60 mg/kg, im; format: functional; details: route intramuscular
[34] = system: Acinetobacter baumannii; experiment: Antimicrobial activity against Acinetobacter baumannii infected in C57BL/6 mouse model assessed as reduction in bacterial count per gram of lung at total dose of 240 mg/kg/day, im administered as four divided doses after 72 hrs (RVb = 10.6+/-0.27); format: functional, organism-based
[35] = Cmax in New Zealand rabbit meningitis model at 30 mg/kg, im; format: ADME, organism-based, Oryctolagus cuniculus; set-up: dose 30 mg/kg, route intramuscular; details: in vivo
[36] = Ratio of AUC to MIC for Acinetobacter baumannii 1327 in pharmacokinetic-pharmacodynamic New Zealand rabbit meningitis model at 30 mg/kg, im; format: functional; details: route intramuscular
[37] = Ratio of AUC to MIC for Acinetobacter baumannii 1327 in pharmacokinetic-pharmacodynamic C57BL/6 mouse pneumonia model at 60 mg/kg, im; format: functional; details: route intramuscular
[38] = system: Acinetobacter baumannii; experiment: Antimicrobial activity against Acinetobacter baumannii infected in C57BL/6 mouse model assessed as reduction in bacterial count in blood at total dose of 240 mg/kg/day, im administered as four divided doses after 72 hrs; format: functional; set-up: scale not given: the % may be the effect or the level left; details: route intramuscular
[39] = Half life in New Zealand rabbit meningitis model at 30 mg/kg, im; format: ADME, organism-based, Oryctolagus cuniculus; set-up: dose 30 mg/kg, route intramuscular; details: in vivo
[40] = Cmax in C57BL/6 mouse pneumonia model at 60 mg/kg, im; format: ADME, organism-based; set-up: dose 60 mg/kg, route intramuscular; details: in vivo
[41] = Half life in C57BL/6 mouse pneumonia model at 60 mg/kg, im; format: ADME, organism-based; set-up: dose 60 mg/kg, route intramuscular; details: in vivo
[42] = AUC in New Zealand rabbit meningitis model at 30 mg/kg, im; format: ADME, organism-based, Oryctolagus cuniculus; set-up: dose 30 mg/kg, route intramuscular; details: in vivo
[43] = Ratio of Cmax to MIC for Acinetobacter baumannii 1327 in pharmacokinetic-pharmacodynamic New Zealand rabbit meningitis model at 30 mg/kg, im; format: functional; details: route intramuscular
[44] = AUC in C57BL/6 mouse pneumonia model at 60 mg/kg, im; format: ADME, organism-based; set-up: dose 60 mg/kg, route intramuscular; details: in vivo
[45] = Ratio of Cmax to MIC for Acinetobacter baumannii 1327 in pharmacokinetic-pharmacodynamic C57BL/6 mouse pneumonia model at 60 mg/kg, im; format: functional; details: route intramuscular

COLISTIN [listing 1 of 2 here] gave a Cmax [1] of 27.39 µg/mL, a Cmax [2] of 9 µg/mL and an AUC [3] of 26420 ng·h/mL. It also gave an AUC [4] of 23430 ng·h/mL, an AUC [5] of 41720 ng·h/mL and a t1/2 [6] of 32.4 min. It also gave a t1/2 [7] of 185 min.

Compound COLISTIN [listing 2 of 2 here] has an MBC [8] of 8 µg/mL, an MIC [8] of 0.5 µg/mL and an Activity [9] of 4.3 log10CFU/ml. The MBC [10] was 1 µg/mL, the MIC [10] was 0.5 µg/mL and the Ratio [11] was 83.4. For the same compound, the Activity [12] was “Active”, the Ratio [13] was 18 and the Ratio [14] was 52.8. The Activity [15] was 73.3%, the Ratio [16] was 54.8 and the Activity [17] was 4.7 log10CFU/ml. For the same compound, the Activity [18] was “Active”, the Activity [19] was “Active” and the Survival [20] was 40%. For the same compound, the MIC [21] was 0.5 µg/mL, the MBC [22] was 2 µg/mL and the MIC [22] was 0.5 µg/mL. The Activity [23] was “Active”, the Activity [24] was “Active” and the Activity [25] was 383 µL⁻¹. The Activity [26] was 4%, the MBC [27] was 2 µg/mL and the MIC [27] was 0.5 µg/mL. It also gave a T>MIC [28] of 3.72 h, a T>MIC [29] of 11.4 h and an Activity [30] of 5.2 log10CFU/ml.

With CC1(C)[C@H](C(=O)O)N2C(=O)C[C@H]2S1(=O)=O [SULBACTAM] the “T>MIC” value [31] was 0.84 h, the MBC [8] was 32 µg/mL (≈ 137 µM) and the MIC [8] was 32 µg/mL (≈ 137 µM). For the same compound, the MBC [10] was 32 µg/mL (≈ 137 µM), the MIC [10] was 32 µg/mL (≈ 137 µM) and the survival at 240 mg/kg/day [32] was 40%. For the same compound, the Activity [12] was “Active”, the “T>MIC” value [33] was 1.29 h and the Activity [34] was “Active”. For the same compound, the Cmax [35] was 75.3 µg/mL, the Ratio [36] was 1.78 and the Ratio [37] was 2.73. For the same compound, the Activity [18] was “Active”, the Activity [19] was “Active” and the Activity [38] was 33.3%. For the same compound, the half-life [39] was 32.4 min, the MBC [22] was 32 µg/mL (≈ 137 µM) and the MIC [22] was 32 µg/mL (≈ 137 µM). The Activity [23] was “Active”, the Cmax [40] was 89.5 µg/mL and the half-life [41] was 21 min. The MBC [27] was 32 µg/mL (≈ 137 µM), the MIC [27] was 32 µg/mL (≈ 137 µM) and the AUC [42] was 57100 ng·h/mL. For the same compound, the Ratio [43] was 2.35, the AUC [44] was 87500 ng·h/mL and the Ratio [45] was 2.8.
